According to article PMC2672171, “In Vivo Delta Opioid Receptor Internalization Controls Behavioral Effects of Agonists” (PLoS ONE, 2009):

Experiments:
[1] = molecular target: T1, DOR-eGFP (delta opioid receptor-eGFP) (Mus musculus, UniProt P32300); test: [3H]naltrindole competition binding, whole brain membranes; conditions: 1 nM [3H]naltrindole, 1 h, 25 °C; read-out: Affinity (Competition Binding) / Ki (nM) / Concentration
T1 construct: gene Oprd1; Full-length mouse delta receptor with C-terminal eGFP, knocked in at the native gene (exon 3, 5' of the stop codon); whole brain membranes of knock-in mice
Excerpt: [3H]naltrindole competition binding, whole brain membranes on DOR-eGFP (delta opioid receptor-eGFP)

[2] = molecular target: T1, DOR-eGFP (delta opioid receptor-eGFP); test: […]GTPgammaS binding, whole brain membranes; type: biochemical; conditions: agonist; 30 µM GDP, 0.1 nM [35S]GTPgammaS, 3 mM MgCl2, 100 mM NaCl, pH 7.4, 1 h, 25 °C; read-out: G protein coupling ([^35S]GTPγS binding) / EC50 (nM) / Striatum / E1/2 (min)

T1 sequence (P32300 whole entry): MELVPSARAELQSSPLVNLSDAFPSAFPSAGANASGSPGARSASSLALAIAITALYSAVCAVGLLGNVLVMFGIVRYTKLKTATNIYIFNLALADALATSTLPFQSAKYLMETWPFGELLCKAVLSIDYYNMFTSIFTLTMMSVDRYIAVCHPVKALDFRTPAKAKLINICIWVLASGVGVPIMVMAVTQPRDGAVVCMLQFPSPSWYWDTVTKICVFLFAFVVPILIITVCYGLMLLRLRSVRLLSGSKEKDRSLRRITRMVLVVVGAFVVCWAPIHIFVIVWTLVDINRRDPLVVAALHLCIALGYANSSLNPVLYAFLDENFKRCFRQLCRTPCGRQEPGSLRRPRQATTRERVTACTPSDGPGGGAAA

CCN(CC)C(=O)c1ccc(C(=C2CCNCC2)c2ccccc2)cc1 [ARM390, N,N-diethyl-4-(phenyl-piperidin-4-ylidenemethyl)-benzamide]
Ki [1]: 2.3 ± 0.3 nM | EC50 [2]: 169 ± 9.5 nM
